Tested on: left ventricle
Test: Cardiotonic effect in wake dogs, left ventricular dp/dt, in relation to isoprenalin
Format: in vivo
Details: intravenous, wake mongrel dogs, average of two to four individual tests; for ED50: Canis lupus familiaris, increasing dosage in intervals of ten minutes, read-out: ED50 (dosage which achieves one-half of the maximum effect), dp/dt; for dp/dt (%) of 0.3/μg/kg Isoprenalin i.v. (maximum achievable effect in comparison to isoprenalin): relative to 0.3 μg/kg isoprenalin i.v.
Procedure: For the tests, mongrel dogs of both sexes were used. In a preparatory operation, catheters had been inserted under aseptic conditions into the Arteria and Vena femoralis and, through the myocardium, into the left ventricle. The tests were begun not less than ten days after this operation, when the animals were again in a clinically healthy state. Throughout the test, during which the animals were wake, the arterial blood pressure was determined by means of a catheter and an electromechanical transducer. In addition, the pressure in the left ventricle was continuously measured by means of a tip manometer which had been introduced into the ventrical catheter and advanced as far as the heart, and from that pressure the differentiation based on the time dp/dt max was determined. The heart rate (f cor) was computed by counting the heart beats at a fast chart speed at given times of measurement. At the beginning of the experiments the animals were injected intravenously with 0.3 μg/kg of isoprenalin and the effect on the rapidity of the pressure increase recorded. After dissipation of this injection the test compounds were injected intravenously in increasing dosage rates in intervals of ten minutes and again the effect of each dosage level determined. For the characterization of the effectiveness of the test compounds two criteria were calculated: 1. The termination of the achievable maximum effect in comparison to isoprenalin. The maximum achievable effect of the test compound was compared to that of isoprenalin. (The higher the value, the stronger the effect.) 2. From the logarithm of the injected dosages and the effect after injection, the dosage was determined which achieves one-half of the maximum effect (ED 50). […]

| Structure (SMILES) | ED50 | dp/dt (%) of 0.3/μg/kg Isoprenalin i.v. (maximum achievable effect in comparison to isoprenalin) |
| --- | --- | --- |
| Cc1cccc(C)c1NCCNCC(O)COc1cccc2c1CCN2C=O (centres unmarked) [1-(1-formylindolin-4-yloxy)-3-[2-(2,6-dimethylphenylamino)-ethylamino]-propan-2-ol] | 4.2 µg/kg | 87% |
| Cc1cccc(C)c1NCCNCC(O)COc1cccc2[nH]nnc12.Cl.Cl (centres unmarked) [1-(Benztriazol-4-yloxy)-3-[2-(2,6-dimethylphenylamino)-ethylamino]-propan-2-ol dihydrochloride] | 3.5 µg/kg | 100% |
| Cc1cccc(C)c1NCCNCC(O)COc1cccc2[nH]ncc12 (centres unmarked) [1-(Indazol-4-yloxy)-3-[2-(2,6-dimethylphenylamino)ethylamino]-propan-2-ol] | 2.2 µg/kg | 87% |
| Cc1cccc(C)c1NCCNCC(O)COc1cccc2[nH]ccc12.O=C(O)O (centres unmarked) [1-(Indol-4-yloxy)-3-[2-(2,6-dimethylphenylamino)-ethylamino]-propan-2-ol dihydrogen carbonate] | 3.2 µg/kg | 85% |
| O=[N+]([O-])c1cccc(NCCNCC(O)COc2cccc3[nH]ncc23)c1 (centres unmarked) [1-(indazol-4-yloxy)-3-[2-(3-nitrophenylamino)-ethylamino]-propan-2-ol] | 2 µg/kg | 66% |
| OC(CNCCNc1cccc2c1CCC2)COc1cccc2[nH]ncc12 (centres unmarked) [1-(indazol-4-yloxy)-3-[2-(indanyl-4-amino)-ethylamino]-propan-2-ol] | 4.9 µg/kg | 83% |
| Cc1cccc(C)c1NCCCNCC(O)COc1cccc2[nH]ncc12 (centres unmarked) [1-(indazol-4-yloxy)-3-[3-2,6-dimethylphenylamino)-propylamino]-propan-2-ol] | 4.2 µg/kg | 110% |

From patent publication US4479962A, “Indazoloxypropanolamine derivatives and use in combating, and for the prophylaxis of, cardiac and circulatory diseases” (Boehringer Mannheim GmbH, priority 1981, dated 1984)
